# Measured values from US12673052B2, “Combinations for the treatment of cancer” (Exelixis, Inc., priority 2020, dated 2026).
# pEC50, pIC50: −log10 of the molar value. Values joined by “and” are separate entries in the source; they are usually repeats but may differ in a detail not shown here. Equal values may be shown once. Read-outs that look alike come from different tables or passages of the source.
# Columns and labels:
# [1] = Single-dose plasma PK, IV and oral (PEG 400:EtOH:RO water); format: in vivo, dogs
# Method: (§1) Plasma PK of Compound 1 was characterized in rats and beagle dogs. Toxicokinetic (TK) evaluations of oral Compound 1 were evaluated in repeat-dose studies in rats and dogs. Plasma protein binding was determined in mouse, rat, dog, monkey, and human plasma in vitro. Biotransformation and metabolite profiling of Compound 1 were investigated in vitro using mouse, rat, dog, monkey, and human liver microsomal fractions and hepatocytes and in vivo in rats and dogs. P-glycoprotein (P-gp) and breast cancer resistance protein (BCRP) transporter interaction studies, in vitro experiments evaluating cytochrome P450 (CYP) induction and inhibition by Compound 1, and CYP and glucuronosyltransferase (UGT) substrate specificity studies of Compound 1 were also performed.
# The PK and TK of Compound 1 were assessed in rats and dogs after intravenous (IV; only single dose PK) and oral (PO) administration of Compound 1 in formulations prepared in polyethylene glycol 400 (PEG 400): ethanol (EtOH): reverse osmosis water (RO Water) (45:5:50 v/v/v).
# Median time to maximum plasma concentration (Tmax) occurred at approximately 2-3 hours in rats and dogs.
# (§2) The mean plasma t1/2, z values were approximately 9 hours in rats and 4 hours in dogs. Interspecies scaling based on body weight to predict PK parameters in humans could not be performed because dogs (larger species) cleared Compound 1 faster than rats (smaller species). Therefore, the human PK was projected based on one species (rat). […] This apparent clearance value (CL/F) was used to predict steady-state exposure (AUC and average plasma concentration [Cavg]) in humans for the proposed first-in-human (FIH) starting dose for Study Compound 1-001.
# [2] = tested on: primary human macrophages; assay: Macrophage re-polarization: primary CD14+ monocytes cultured in M2 polarizing conditions; format: cell-based; conditions: donor (A, H, L, D, B), Donor A and B n = 1
# Method: The TAM RTKs play an important role in balancing the functions of M1 and M2 macrophage subsets. Compound 1 was tested for inhibition against primary CD14+ monocytes cultured in M2 polarizing conditions. A dose dependent polarization of the monocytes to pro-inflammatory M1 macrophages across cells from all tested donors was observed (Table 4).
# P-gp = P-gp (Homo sapiens, UniProt P08183); assay: Transporter interaction study (substrate and inhibition); format: in vitro ADME
# Chain of P-gp (P08183 whole entry): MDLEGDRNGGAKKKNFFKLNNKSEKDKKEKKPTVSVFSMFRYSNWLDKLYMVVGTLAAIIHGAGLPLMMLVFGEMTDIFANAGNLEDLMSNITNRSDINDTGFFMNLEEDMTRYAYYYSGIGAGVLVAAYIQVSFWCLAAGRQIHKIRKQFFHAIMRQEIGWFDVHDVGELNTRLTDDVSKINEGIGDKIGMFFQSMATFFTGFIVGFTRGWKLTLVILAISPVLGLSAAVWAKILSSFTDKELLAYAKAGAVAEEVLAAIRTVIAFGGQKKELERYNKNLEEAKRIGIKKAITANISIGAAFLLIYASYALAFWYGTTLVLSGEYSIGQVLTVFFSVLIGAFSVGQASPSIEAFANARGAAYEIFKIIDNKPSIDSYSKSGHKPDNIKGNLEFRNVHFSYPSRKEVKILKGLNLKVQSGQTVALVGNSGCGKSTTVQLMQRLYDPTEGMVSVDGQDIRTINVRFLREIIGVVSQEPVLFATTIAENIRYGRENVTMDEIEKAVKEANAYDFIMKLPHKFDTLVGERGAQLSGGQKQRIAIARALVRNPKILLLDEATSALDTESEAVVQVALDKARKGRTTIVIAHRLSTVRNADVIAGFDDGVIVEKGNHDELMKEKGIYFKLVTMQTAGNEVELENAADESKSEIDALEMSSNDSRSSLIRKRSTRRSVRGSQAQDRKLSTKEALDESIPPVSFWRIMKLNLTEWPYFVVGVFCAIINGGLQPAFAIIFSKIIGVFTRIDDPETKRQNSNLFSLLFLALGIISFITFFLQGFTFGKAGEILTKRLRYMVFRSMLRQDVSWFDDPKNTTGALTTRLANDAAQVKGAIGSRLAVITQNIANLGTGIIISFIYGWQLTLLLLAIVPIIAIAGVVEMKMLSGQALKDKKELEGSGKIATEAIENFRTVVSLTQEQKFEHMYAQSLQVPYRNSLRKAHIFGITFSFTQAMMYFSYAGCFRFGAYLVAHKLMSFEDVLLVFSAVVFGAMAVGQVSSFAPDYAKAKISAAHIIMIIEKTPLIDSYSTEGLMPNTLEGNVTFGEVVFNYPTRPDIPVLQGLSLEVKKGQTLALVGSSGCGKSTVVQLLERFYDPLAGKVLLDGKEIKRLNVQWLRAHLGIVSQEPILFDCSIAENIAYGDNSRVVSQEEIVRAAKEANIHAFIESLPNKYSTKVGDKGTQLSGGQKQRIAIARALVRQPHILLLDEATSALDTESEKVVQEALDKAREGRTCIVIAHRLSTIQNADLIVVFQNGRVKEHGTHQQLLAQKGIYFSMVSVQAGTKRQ
# Method: as §1
# CYP2B6 [3] = assay: Cytochrome P450 induction (mRNA levels) in fresh primary human hepatocytes; format: in vitro ADME
# CYP2B6 [4] = assay: CYP/UGT substrate specificity (recombinant Supersomes, chemical inhibitors in human liver microsomes); format: in vitro ADME
# Method: as §1
# UGT1A9 = biological target: T1, UGT1A9 (Homo sapiens, UniProt O60656); assay: as above; format: in vitro ADME
# T1 construct: purchased; host or cells: recombinant Supersomes; human liver microsomes
# T1 sequence (O60656 26-530): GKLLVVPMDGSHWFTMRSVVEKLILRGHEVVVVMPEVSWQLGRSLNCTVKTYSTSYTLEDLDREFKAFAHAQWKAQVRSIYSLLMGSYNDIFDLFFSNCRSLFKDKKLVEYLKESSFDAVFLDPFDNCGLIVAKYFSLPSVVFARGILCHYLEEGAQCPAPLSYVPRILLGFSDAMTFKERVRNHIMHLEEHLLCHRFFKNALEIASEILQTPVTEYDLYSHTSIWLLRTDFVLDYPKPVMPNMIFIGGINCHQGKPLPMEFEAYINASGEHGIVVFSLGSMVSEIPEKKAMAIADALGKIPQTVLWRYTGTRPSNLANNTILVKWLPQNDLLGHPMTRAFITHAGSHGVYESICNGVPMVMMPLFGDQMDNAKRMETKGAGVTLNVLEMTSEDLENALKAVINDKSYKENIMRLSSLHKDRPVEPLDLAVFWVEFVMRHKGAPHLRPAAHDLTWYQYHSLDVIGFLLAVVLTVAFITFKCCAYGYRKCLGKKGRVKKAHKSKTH
# Method: as §1
# UGT1A4 = biological target: T2, UGT1A4 (Homo sapiens, UniProt P22310); assay: as above; format: in vitro ADME
# T2 construct: purchased; host or cells: recombinant Supersomes; human liver microsomes
# T2 sequence (P22310 29-534): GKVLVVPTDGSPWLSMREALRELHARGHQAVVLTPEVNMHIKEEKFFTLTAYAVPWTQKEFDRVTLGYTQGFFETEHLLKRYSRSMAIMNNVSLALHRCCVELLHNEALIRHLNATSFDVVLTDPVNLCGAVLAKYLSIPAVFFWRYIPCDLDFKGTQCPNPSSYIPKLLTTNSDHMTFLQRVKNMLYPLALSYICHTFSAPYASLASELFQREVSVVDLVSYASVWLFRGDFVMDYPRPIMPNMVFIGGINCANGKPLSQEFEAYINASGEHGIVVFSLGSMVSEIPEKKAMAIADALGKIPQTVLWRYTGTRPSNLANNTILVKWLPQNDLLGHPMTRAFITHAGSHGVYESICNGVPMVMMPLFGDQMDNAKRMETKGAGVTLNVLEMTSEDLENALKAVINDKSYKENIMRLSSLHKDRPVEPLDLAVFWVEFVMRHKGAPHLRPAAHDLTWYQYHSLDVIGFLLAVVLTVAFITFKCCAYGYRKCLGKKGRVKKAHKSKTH
# Method: as §1
# CYP2C19 = assay: as above; format: in vitro ADME
# Method: as §1
# CYP2C8 = assay: as above; format: in vitro ADME
# Method: as §1
# UGT2B7 = biological target: T3, UGT2B7 (Homo sapiens, UniProt P16662); assay: as above; format: in vitro ADME
# T3 construct: purchased; host or cells: recombinant Supersomes; human liver microsomes
# T3 sequence (P16662 24-529): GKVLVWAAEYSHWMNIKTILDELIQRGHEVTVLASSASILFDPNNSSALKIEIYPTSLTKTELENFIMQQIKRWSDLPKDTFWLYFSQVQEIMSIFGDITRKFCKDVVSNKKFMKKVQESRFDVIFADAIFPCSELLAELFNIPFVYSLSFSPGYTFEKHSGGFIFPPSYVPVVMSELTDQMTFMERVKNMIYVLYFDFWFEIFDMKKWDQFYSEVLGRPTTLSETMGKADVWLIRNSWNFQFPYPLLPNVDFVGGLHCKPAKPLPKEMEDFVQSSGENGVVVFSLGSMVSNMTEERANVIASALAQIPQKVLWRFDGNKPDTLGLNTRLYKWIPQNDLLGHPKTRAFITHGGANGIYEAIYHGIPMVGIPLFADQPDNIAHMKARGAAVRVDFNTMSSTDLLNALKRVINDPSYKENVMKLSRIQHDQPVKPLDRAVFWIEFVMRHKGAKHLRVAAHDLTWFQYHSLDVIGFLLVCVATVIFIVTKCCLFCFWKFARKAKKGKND
# Method: as §1
# CYP1A2 = assay: as above; format: in vitro ADME
# Method: as §1
# CYP2C9 = assay: as above; format: in vitro ADME
# Method: as §1
# CYP3A4 = assay: as above; format: in vitro ADME
# Method: as §1
# UGT1A1 = biological target: T4, UGT1A1 (Homo sapiens, UniProt P22309); assay: as above; format: in vitro ADME
# T4 construct: purchased; host or cells: recombinant Supersomes; human liver microsomes
# T4 sequence (P22309 26-533): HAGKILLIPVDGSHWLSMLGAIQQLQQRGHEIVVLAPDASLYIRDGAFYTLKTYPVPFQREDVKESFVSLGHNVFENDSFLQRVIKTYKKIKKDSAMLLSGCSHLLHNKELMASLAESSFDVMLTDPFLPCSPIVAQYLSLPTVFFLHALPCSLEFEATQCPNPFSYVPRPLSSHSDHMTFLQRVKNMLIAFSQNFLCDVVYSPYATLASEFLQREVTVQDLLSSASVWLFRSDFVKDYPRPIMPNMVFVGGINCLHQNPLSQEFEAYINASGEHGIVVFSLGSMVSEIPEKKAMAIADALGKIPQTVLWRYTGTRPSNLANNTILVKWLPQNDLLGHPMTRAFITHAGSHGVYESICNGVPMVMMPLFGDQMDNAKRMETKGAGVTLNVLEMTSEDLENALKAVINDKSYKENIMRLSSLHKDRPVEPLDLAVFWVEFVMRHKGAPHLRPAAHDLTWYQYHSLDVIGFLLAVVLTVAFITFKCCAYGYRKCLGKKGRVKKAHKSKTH
# Method: as §1
# [5] = Hepatocyte stability assay; format: in vitro ADME, rat; conditions: hepatocytes
# Method: as §2
# (§3) In the liver microsomal stability assay, CLint was 0.601 mL/min/g liver in mouse, 0.563 mL/min/g liver in rat, 0.315 mL/min/g liver in dog, 0.734 mL/min/g liver in monkey, and 0.639 mL/min/g liver in human. In the hepatocyte stability assay, Compound 1 CLint was 0.373 mL/min/g liver in mouse, 0.285 mL/min/g liver in rat, 1.08 mL/min/g liver in dog, 0.533 mL/min/g liver in monkey, and 0.317 mL/min/g liver in human.
# [6] = Liver microsomal stability assay; format: in vitro ADME, dog; conditions: liver microsomes
# Method: as §3
# VEGFR2 = VEGFR2 (Homo sapiens, UniProt P35968); assay: RTK autophosphorylation ELISA, HUVEC stimulated with VEGF165; format: cell-based; parameters: cell lines (PC-3, HUVEC, and A-172) stimulated with ligands to their respective receptors to induce autophosphorylation (MET, VEGFR2, and AXL); endogenous in cells; host or cells: HUVEC; conditions: VEGFR2, ligand VEGF165; read-out: Cellular IC50
# Chain of VEGFR2 (P35968 20-1356): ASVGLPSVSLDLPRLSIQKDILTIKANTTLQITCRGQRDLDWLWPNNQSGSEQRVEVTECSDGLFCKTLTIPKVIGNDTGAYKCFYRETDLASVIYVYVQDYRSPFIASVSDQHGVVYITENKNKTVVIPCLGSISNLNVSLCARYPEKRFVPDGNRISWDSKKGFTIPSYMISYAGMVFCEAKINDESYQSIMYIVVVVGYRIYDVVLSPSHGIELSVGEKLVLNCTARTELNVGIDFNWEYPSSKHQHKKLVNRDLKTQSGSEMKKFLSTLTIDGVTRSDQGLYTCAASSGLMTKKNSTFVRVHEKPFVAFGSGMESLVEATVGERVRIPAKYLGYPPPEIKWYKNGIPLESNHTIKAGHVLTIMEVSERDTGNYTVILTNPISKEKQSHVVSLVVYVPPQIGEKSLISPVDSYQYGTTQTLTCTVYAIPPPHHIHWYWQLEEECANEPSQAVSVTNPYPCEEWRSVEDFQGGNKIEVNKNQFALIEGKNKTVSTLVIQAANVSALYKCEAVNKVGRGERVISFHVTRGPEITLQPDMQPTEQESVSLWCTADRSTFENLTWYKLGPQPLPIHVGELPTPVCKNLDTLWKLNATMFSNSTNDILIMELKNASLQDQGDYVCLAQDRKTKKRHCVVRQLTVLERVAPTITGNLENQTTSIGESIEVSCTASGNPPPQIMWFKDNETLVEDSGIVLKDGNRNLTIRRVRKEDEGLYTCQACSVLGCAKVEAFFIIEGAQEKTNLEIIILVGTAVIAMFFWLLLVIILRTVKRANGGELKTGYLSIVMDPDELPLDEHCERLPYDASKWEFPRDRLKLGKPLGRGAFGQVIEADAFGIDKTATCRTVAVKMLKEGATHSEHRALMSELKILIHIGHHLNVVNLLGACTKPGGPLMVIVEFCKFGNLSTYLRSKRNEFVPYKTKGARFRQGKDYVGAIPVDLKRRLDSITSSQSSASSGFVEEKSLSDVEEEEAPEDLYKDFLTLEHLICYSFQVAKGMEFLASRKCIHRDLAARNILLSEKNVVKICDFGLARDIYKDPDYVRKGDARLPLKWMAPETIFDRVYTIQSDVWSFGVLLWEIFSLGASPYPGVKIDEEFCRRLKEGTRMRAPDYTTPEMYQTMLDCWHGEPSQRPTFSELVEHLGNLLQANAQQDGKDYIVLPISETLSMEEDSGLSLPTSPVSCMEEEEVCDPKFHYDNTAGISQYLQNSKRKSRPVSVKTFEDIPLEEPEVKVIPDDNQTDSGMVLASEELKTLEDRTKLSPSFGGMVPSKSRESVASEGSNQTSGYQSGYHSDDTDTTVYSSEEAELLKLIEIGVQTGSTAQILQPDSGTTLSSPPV
# Method: The activity of Compound 1 was evaluated in cell-based assays that assessed the mechanistic effects of the compound in tumor and normal cells. Consistent with the biochemical data, Compound 1 is a potent inhibitor of cellular RTKs as assessed by analysis of receptor autophosphorylation as measured by enzyme-linked immunosorbent assay. Assays were performed using cell lines (PC-3, HUVEC, and A-172) stimulated with ligands to their respective receptors to induce autophosphorylation (MET, VEGFR2, and AXL) or a cell line (293A) transfected with an expression vector encoding the receptor of interest (MER). Inhibition of endogenous phosphorylated MET by Compound 1 in Hs 746T gastric carcinoma cells was also investigated due to the presence of the skip-splice mutation of exon 14 in the MET gene. This MET exon 14 alteration leads to increased MET stability and oncogenic activation, including constitutive MET phosphorylation. Also this mutation is known to occur in 3% of lung adenocarcinoma patients and to be sensitive to MET-targeted therapies (Frampton et al 2015).
# [7] = Hepatocyte stability assay; format: in vitro ADME, monkey; conditions: hepatocytes
# Method: as §3
structure (smiles),measurement,setting,value
"CNC(=O)c1cc2c(Oc3ccc(NC(=O)C4(C(=O)Nc5ccc(F)cc5)CC4)cc3)ccnc2cc1OC [Compound 1, 1-N′-(4-Fluorophenvl)-1-N-[4-[7-methoxy-6-(methylcarbamovl)quinolin-4-yl]oxyphenyl]cyclopropane-1,1-dicarboxamide]",bioavailability,"[1]; beagle, dog, plasma, po, 0.2-0.6 mg/kg, read-out: Oral absolute bioavailability",47 to 70%
same,half-life,"[1]; beagle, dog, plasma, after oral administration, read-out: terminal phase half-life (t1/2, z)",60 to 180 min
same,Tmax,"[1]; beagle, dog, plasma, single oral dose, read-out: Median time to maximum plasma concentration (Tmax)",2 to 3 h
same,clearance,"[1]; beagle, dog, plasma, single-dose IV 0.2-0.6 mg/kg, read-out: mean plasma clearance (CL) (converted)",6.33 mL/min/kg
same,half-life,"[1]; beagle, dog, plasma, single-dose IV, read-out: mean plasma t1/2, z (converted)",~240 min
same,Vd,"[1]; beagle, dog, plasma, single-dose IV, read-out: mean volume of distribution at steady-state (Vss)",1.98 L/kg
same,plasma clearance in dogs relative to rats,[1]; higher in dogs than in rats,approximately 16 fold
same,increase of exposure (Cmax and AUC0-inf) with dose,[1]; single oral doses 0.2-0.6 mg/kg,approximately dose proportionally
same,"M1/M2 Ratio, Fold Change Relative to DMSO (n = 2)",[2]; 2 uM,1.3 ± 2.6 and 1.7 (2×) and 1.0 ± 2.6 and 2.2 ± 1.1
same,"M1/M2 Ratio, Fold Change Relative to DMSO (n = 2)",[2]; 4 uM,3.6 ± 1.2 and 4.1 and 3.3 and 3.7 ± 1.2 and 3.4 ± 1.4
same,"M1/M2 Ratio, Fold Change Relative to DMSO (n = 2)",[2]; 6 uM,3.5 ± 1.2 and 4.0 and 4.6 and 4.5 ± 1.0 and 4.6 ± 1.7
same,substrate of transporter,P-gp,not to be a substrate
same,pIC50,P-gp; strong inhibitor,7.23
same,pEC50,"CYP2B6 [3]; human, fresh primary human hepatocytes, mRNA induction, read-out: half-maximal effective concentration (EC50)",5.27
same,maximal induction effect (Emax),"CYP2B6 [3]; mRNA, 0.1-100 μM",17 fold
same,substrate of enzyme,CYP2B6 [4],not to be a substrate
same,substrate of enzyme,UGT1A9,not to be a substrate
same,role in Compound 1 metabolism,UGT1A4,may play a minor role
same,substrate of enzyme,CYP2C19,not to be a substrate
same,role in the metabolism of Compound 1,CYP2C8,only a minor role
same,substrate of enzyme,UGT2B7,not to be a substrate
same,substrate of enzyme,CYP1A2,not to be a substrate
same,substrate of enzyme,CYP2C9,weaker substrate
same,substrate of enzyme,CYP3A4,sensitive substrate
same,substrate of enzyme,UGT1A1,not to be a substrate
same,CLint,[5],0.285 mL/min/g liver
same,CLint,[6],0.315 mL/min/g liver
same,pIC50,VEGFR2,8.82
same,CLint,[7],0.533 mL/min/g liver
